The text below walks through data of patent publication US9233981B1, “Substituted phenyl hexahydropyrano[3,4-d][1,3]thiazin-2-amine compounds” (Pfizer Inc., priority 2013, dated 2016).

The target of one test is BACE1 enzyme (Homo sapiens (Human), UniProt P56817). The test is described as follows: BACE1 Cell-Free Assay (fluorescence polarization, cleavage of synthetic APP substrate). The test is classed as biochemical. Particulars: geometric mean of 2-3 determinations; Examples 32-34 (footnote b) single determination. From the text:
Beta-secretase (BACE) is one of the enzymes involved in the generation of the amyloid beta peptide found in the amyloid plaques of Alzheimer's Disease patients. This assay measures the inhibition of the beta-secretase enzyme as it cleaves a non-native peptide.
A synthetic APP substrate that can be cleaved by beta-secretase having N-terminal biotin and made fluorescent by the covalent attachment of Oregon Green at the Cys residue is used to assay beta-secretase activity in the presence or absence of the inhibitory compounds. The substrate is Biotin-GLTNIKTEEISEISY^EVEFR-C[Oregon Green]KK-OH. The BACE1 enzyme is affinity purified material from conditioned media of CHO-K1 cells that have been transfected with a soluble BACE construct (BACE1deltaTM96His). Compounds are incubated in a log dose response curve from a top concentration of 100 μM with BACE1 enzyme and the biotinylated fluorescent peptide in 384-well black plates (Thermo Scientific #4318). BACE1 is at a final concentration of 0.1 nM with a final concentration of peptide substrate of 150 nM in a reaction volume of 30 μL assay buffer [100 mM sodium acetate, pH 4.5 (brought to pH with acetic acid), and 0.001% Tween-20]. Plates are covered and incubated for 3 hours at 37° C. The reaction is stopped with the addition of 30 μL of 1.5 μM Streptavidin (Pierce, #21125). After a 10 minute incubation at room temperature, plates are read on a PerkinElmer EnVision for fluorescence polarization (Ex485 nm/Em530 nm). The activity of the beta-secretase enzyme is detected by changes in the fluorescence polarization that occur when the substrate is cleaved by the enzyme.
For orientation: Polarisation of emitted light reports the rotation of a fluorescent probe.

For test [1], the system named is sAPPβ levels in H4 human neuroglioma cells over-expressing the wild-type human APP695. The test is described as follows: Whole Cell Assay (In Vitro sAPPβ Assay), TMB-ELISA. Type of test: cell-based. The settings on record: 18 hours, geometric mean of 2-3 determinations, Examples 32-34 (footnote b) single determination. How it is done: Whole Cell Assay (In Vitro sAPPpβ Assay):
H4 human neuroglioma cells over-expressing the wild-type human APP695 are treated for 18 hours with compound in a final concentration 1% DMSO. sAPPβ levels are measured using TMB-ELISA with capture APP N-terminal antibody (Affinity BioReagents, OMA1-03132), wild-type sAPPβ specific reporter p192 (Elan), and tertiary anti rabbit-HRP (GE Healthcare).
(In general: In an ELISA, binding on a coated surface is turned into a signal by an enzyme label.)

Chain of BACE1 enzyme (P56817 46-457): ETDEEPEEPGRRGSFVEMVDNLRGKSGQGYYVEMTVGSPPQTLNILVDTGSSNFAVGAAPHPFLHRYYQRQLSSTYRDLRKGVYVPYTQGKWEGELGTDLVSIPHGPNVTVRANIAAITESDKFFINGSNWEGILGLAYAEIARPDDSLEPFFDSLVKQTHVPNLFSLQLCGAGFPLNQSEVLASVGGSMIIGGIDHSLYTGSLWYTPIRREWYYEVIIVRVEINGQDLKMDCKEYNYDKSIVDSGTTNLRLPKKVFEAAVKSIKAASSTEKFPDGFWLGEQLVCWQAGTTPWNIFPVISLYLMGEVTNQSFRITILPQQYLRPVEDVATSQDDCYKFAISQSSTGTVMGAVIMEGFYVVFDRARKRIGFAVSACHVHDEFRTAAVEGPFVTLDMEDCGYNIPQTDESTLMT

What is called IC50 is the concentration at which inhibition is half-maximal. High values mean weaker potency, low ones greater potency. In the case of `C[C@H]1SC(N)=N[C@@]2(c3ccc(F)cc3F)CO[C@@H](c3ccc(F)cc3)C[C@@H]12` [Example 32, (4R,4aR,6R,8aS)-8a-(2,4-Difluorophenyl)-6-(4-fluorophenyl)-4-methyl-4,4a,5,6,8,8a-hexahydropyrano[3,4-d][1,3]thiazin-2-amine], the half-maximal inhibitory concentration (IC50) against BACE1 enzyme was determined as 15 nM; in test [1], 0.004 nM.

As to `COc1ccc([C@H]2C[C@H]3CSC(N)=N[C@@]3(c3ccc(F)cc3F)CO2)c(F)c1` [Example 20, (4aR,6R,8aS)-8a-(2,4-difluorophenyl)-6-(2-fluoro-4-methoxyphenyl)-4,4a,5,6,8,8a-hexahydropyrano[3,4-d][1,3]thiazin-2-amine], the 50% inhibitory concentration (IC50) against BACE1 enzyme is 83 nM; in test [1] it was 0.039 nM.

For the compound `COc1ccccc1[C@H]1C[C@H]2CSC(N)=N[C@@]2(c2ccc(F)cc2F)CO1` [Example 17, (4aR,6R,8aS)-8a-(2,4-difluorophenyl)-6-(2-methoxyphenyl)-4,4a,5,6,8,8a-hexahydropyrano[3,4-d][1,3]thiazin-2-amine], the IC50 at BACE1 enzyme worked out at 2210 nM; in test [1], 0.691 nM.

Turning to `CCOc1ccc([C@H]2C[C@H]3CSC(N)=N[C@@]3(c3ccc(F)cc3F)CO2)cc1` [Example 23, (4aR,6R,8aS)-8a-(2,4-difluorophenyl)-6-(4-ethoxyphenyl)-4,4a,5,6,8,8a-hexahydropyrano[3,4-d][1,3]thiazin-2-amine], the results for the concentration for half-maximal inhibition (IC50) (on BACE1 enzyme; in test [1]) were 11 nM and 0.021 nM, respectively.

For `NC1=N[C@@]2(c3ccc(F)cc3F)CO[C@@H](c3ccc(F)cc3F)C[C@H]2CS1` [Example 4, (4aR,6R,8aS)-6,8a-bis(2,4-difluorophenyl)-4,4a,5,6,8,8a-hexahydropyrano[3,4-d][1,3]thiazin-2-amine], the IC50 against BACE1 enzyme stood at 39 nM; in test [1], 0.025 nM.

Turning to `COc1ccc([C@H]2C[C@H]3CSC(N)=N[C@@]3(c3ccc(F)cc3F)CO2)cc1F` [Example 19, (4aR,6R,8aS)-8a-(2,4-difluorophenyl)-6-(3-fluoro-4-methoxyphenyl)-4,4a,5,6,8,8a-hexahydropyrano[3,4-d][1,3]thiazin-2-amine], the IC50 turned out to be 44 nM at BACE1 enzyme and 0.023 nM in test [1].

Take `Cc1ccccc1[C@H]1C[C@H]2CSC(N)=N[C@@]2(c2ccc(F)cc2F)CO1` [Example 7, (4aR,6R,8aS)-8a-(2,4-difluorophenyl)-6-(2-methylphenyl)-4,4a,5,6,8,8a-hexahydropyrano[3,4-d][1,3]thiazin-2-amine]: the IC50 turned out to be 970 nM at BACE1 enzyme and 0.665 nM in test [1].

On to `COc1ccc(F)c([C@H]2C[C@H]3CSC(N)=N[C@@]3(c3ccc(F)cc3F)CO2)c1` [Example 22, (4aR,6R,8aS)-8a-(2,4-difluorophenyl)-6-(2-fluoro-5-methoxyphenyl)-4,4a,5,6,8,8a-hexahydropyrano[3,4-d][1,3]thiazin-2-amine], for which the values for the 50% inhibitory concentration (IC50) (against BACE1 enzyme; in test [1]) were 397 nM and 0.248 nM, respectively.

As to `COCc1cccc([C@H]2C[C@H]3CSC(N)=N[C@@]3(c3ccc(F)cc3F)CO2)c1` [Example 24, (4aR,6R,8aS)-8a-(2,4-difluorophenyl)-6-[3-(methoxymethyl)phenyl]-4,4a,5,6,8,8a-hexahydropyrano[3,4-d][1,3]thiazin-2-amine], the 50% inhibitory concentration (IC50) against BACE1 enzyme stood at 161 nM; in test [1], 0.071 nM.
